Patent US12593845B2 (priority 2019, dated 2026)

How the values were obtained:
[1] = tested on: apple scab pathogen (Venturia inaequalis); test: Apple scab control test; type: in vivo; conditions: 336 h, 125 ppm drug solution sprayed onto apple seedlings (Orin), lesion area ratio 2 weeks after inoculation
Description: (§1) 5 parts by weight of the dihydropyrimidine compound of the present invention, 93.5 parts by weight of N,N-dimethylformamide, and 1.5 parts by weight of polyoxyethylene sorbitan monolaurate (TWEEN® 20) were mixed and dissolved to obtain an emulsion (I) including 5% of an active ingredient.
(§2) The control value was calculated by the following expression. Control value (%)=100−{lesion area ratio in treated group/lesion area ratio in untreated group}×100 [Expression 1]
Water was added to the emulsion (I) such that the concentration of the dihydropyrimidine compound reached 125 ppm to dissolve the emulsion, and a drug solution was obtained. Subsequently, the drug solution was sprayed onto apple seedlings (variety: “Orin”, leaf stage: 3 to 4) cultivated in seedling pots. After air drying, the seedlings were inoculated with conidiospores of an apple scab pathogen (Venturia inaequalis) (treated group). As a control, apple seedlings that were not sprayed with the drug solution were inoculated in the same manner (untreated group). The seedlings were left to stand in a humidified room at 20° C. using a 12 hour light/dark cycle.
On the day 2 weeks after the inoculation, the leaves of the apple seedlings were visually observed to determine the lesion area ratio, and the control value was calculated.

[2] = tested on: wheat powdery mildew pathogen (Erysiphe graminis f. sp. tritici); test: Wheat powdery mildew control test; type: in vivo; conditions: Blumeria graminis, 144 h; 125 ppm drug solution sprayed onto wheat seedlings (Chihoku); lesion area ratio 6 days after inoculation
Description: as §1, §2
Water was added to the emulsion (I) such that the concentration of the dihydropyrimidine compound reached 125 ppm to dissolve the emulsion, and a drug solution was obtained. Subsequently, the drug solution was sprayed onto wheat seedlings (variety: “Chihoku”, leaf stage: 1 to 2) cultivated in seedling pots. After air drying, conidiospores of a wheat powdery mildew pathogen (Erysiphe graminis f. sp. tritici) were sprinkled thereon for inoculation (treated group). As a control, wheat seedlings that were not sprayed with the drug solution were inoculated in the same manner as described above (untreated group). The seedlings were left to stand in a greenhouse at 20° C.
On the 6 days after the inoculation, the leaves of the wheat seedlings were visually observed to determine the lesion area ratio, and the control value was calculated.

Aspergillus niger = test: Antimicrobial test against Aspergillus niger; type: cell-based; conditions: 96 h, Vogel medium, 25° C., 4 days in the dark, turbidity at 405 nm, read-out: growth inhibition rate
Description: Spores of Aspergillus niger were added to and dispersed in a Vogel medium, and a dihydropyrimidine compound dissolved in dimethyl sulfoxide was added and mixed thereto at 25 ppm. The resulting solution was dispensed onto a 96-well microplate and cultivated in the dark at 25° C. for 4 days.
After the cultivation, the turbidity at a wavelength of 405 nm was measured by a microplate reader and compared with that in the untreated case to determine the growth inhibition of Aspergillus niger (%) was determined.

[3] = tested on: wheat powdery mildew pathogen (Erysiphe graminis f. sp. tritici); test: Wheat powdery mildew seed treatment test; type: in vivo; conditions: Blumeria graminis, 168 h; seed treatment 100 g/100 kg wheat seeds (Chihoku); inoculation after 8 to 10 days; lesion area ratio 7 days after inoculation
Description: as §1, §2
The emulsion (I) was used to treat seeds such that (weight of dihydropyrimidine compound)/(weight of seeds) reached 100 g/100 kg based on the wheat seeds (variety: “Chihoku”). These seeds were disseminated in pots, and after 8 to 10 days, conidiospores of a wheat powdery mildew pathogen (Erysiphe graminis f. sp. tritici) were sprinkled thereon for inoculation (treated group). As a control, wheat seedlings that were not treated with the drug were inoculated in the same manner as described above (untreated group). The seedlings were left to stand in a greenhouse at 20° C.
(§3) On the 7 days after the inoculation, the leaves of the wheat seedlings were visually observed to determine the lesion area ratio, and the control value was calculated.

[4] = tested on: wheat powdery mildew pathogen (Erysiphe graminis f. sp. tritici); test: Wheat powdery mildew soil irrigation treatment test; type: in vivo; conditions: Blumeria graminis, 168 h; soil irrigation with 10 ml of 100 ppm drug solution per pot, wheat (Chihoku); inoculation after 8 to 10 days; lesion area ratio 7 days after inoculation
Description: as §1, §2
Pots (5.5 cm×5.5 cm) in which wheat seeds (variety: “Chihoku”) were disseminated were irrigated with 10 ml of a drug solution prepared by adding water to the emulsion (I) so as to have a concentration of the dihydropyrimidine compound of 100 ppm. After 8 to 10 days, conidiospores of a wheat powdery mildew pathogen (Erysiphe graminis f. sp. tritici) were sprinkled thereon for inoculation (treated group). As a control, wheat seedlings that were not treated with the drug were inoculated in the same manner as described above (untreated group). The seedlings were left to stand in a greenhouse at 20° C.
as §3

CCO/N=C(\C)c1cn(CC(OC)c2cc(F)ccc2OC)c(=O)n(CCNC(=O)C(C)C)c1=O (stereo not shown) [A-96]
pest or weed control at 125 ppm [1]: ≥ 75% | pest or weed control at 125 ppm [2]: ≥ 75% | inhibition at 25 ppm (Aspergillus niger): ≥ 50%

CCO/N=C(\C)c1cn(CC(OC)c2cc(F)ccc2OC)c(=O)n(CCN(C)C(=O)C(C)C)c1=O (stereo not shown) [A-97]
pest or weed control at 125 ppm [1]: ≥ 75% | pest or weed control at 125 ppm [2]: ≥ 75% | inhibition at 25 ppm (Aspergillus niger): ≥ 50%

COc1ccc(F)cc1C(Cn1cc(/C(C)=N/OC(C)C)c(=O)n(CCNC(=O)C(C)C)c1=O)OCCC#N (stereo not shown) [A-101]
pest or weed control at 125 ppm [1]: ≥ 75% | pest or weed control at 125 ppm [2]: ≥ 75% | inhibition at 25 ppm (Aspergillus niger): ≥ 50%

COc1ccc(F)cc1C(O)Cn1cc(/C(C)=N/OC(C)C)c(=O)n(CCNC(=O)C(C)C)c1=O (stereo not shown) [A-102]
pest or weed control at 125 ppm [1]: ≥ 75% | pest or weed control at 125 ppm [2]: ≥ 75% | inhibition at 25 ppm (Aspergillus niger): ≥ 50%

CCON=Cc1cn(CCc2ccccc2OC)c(=O)n(C(C)C(=O)N2CCCCC2)c1=O (stereo not shown) [A-105]
pest or weed control at 125 ppm [1]: ≥ 75% | pest or weed control at 125 ppm [2]: ≥ 75%

CCO/N=C(\C)c1nn(CC(O)c2cc(F)ccc2OC)c(=O)n(C[C@H](C)NC(=O)C(C)C)c1=O (stereo partly shown) [B-1]
pest or weed control at 125 ppm [2]: ≥ 75%

CCO/N=C(\C)c1nn(CC(OCCC#N)c2cc(F)ccc2OC)c(=O)n(C(C)C(=O)NC(C)C)c1=O (stereo not shown) [B-3]
pest or weed control at 125 ppm [1]: ≥ 75% | pest or weed control at 125 ppm [2]: ≥ 75%

CC[C@@H](Cn1c(=O)c(/C(C)=N/OC(C)C)cn(CC(O)c2cc(F)ccc2OC)c1=O)NC(=O)N(C)C (stereo partly shown) [C-54]
pest or weed control at 100 g/100 kg seed [3]: ≥ 75% | inhibition at 25 ppm (Aspergillus niger): ≥ 50%

CCC(=O)N[C@@H](CC)Cn1c(=O)c(/C(C)=N/OC(C)C)cn(CC(O)c2cc(F)ccc2OC)c1=O (stereo partly shown) [C-56]
pest or weed control at 100 g/100 kg seed [3]: ≥ 75% | inhibition at 25 ppm (Aspergillus niger): ≥ 50%

CCN(CC)C(=O)N[C@H](Cn1c(=O)c(/C(C)=N/OC(C)C)cn(CC(O)c2cc(F)ccc2OC)c1=O)C(C)C (stereo partly shown) [C-67]
pest or weed control at 100 ppm [4]: ≥ 75%

COc1ccccc1C(O)Cn1cc(/C(C)=N/OC(C)C)c(=O)n(C[C@@H](NC(=O)c2ccccc2)C(C)C)c1=O (stereo partly shown) [C-85]
pest or weed control at 100 g/100 kg seed [3]: ≥ 75%

CCN(C)C(=O)N[C@H](Cn1c(=O)c(/C(C)=N/OC(C)C)cn(CC(O)c2cc(F)ccc2OC)c1=O)C(C)C (stereo partly shown) [C-89]
pest or weed control at 100 g/100 kg seed [3]: ≥ 75% | inhibition at 25 ppm (Aspergillus niger): ≥ 50%

COc1ccccc1C(O)Cn1cc(/C(C)=N/OC(C)C)c(=O)n(C[C@@H](NC(=O)CC(C)C)C(C)C)c1=O (stereo partly shown) [C-97]
pest or weed control at 100 g/100 kg seed [3]: ≥ 75%

COc1ccc(F)cc1C(O)Cn1cc(/C(C)=N/OC(C)C)c(=O)n(C[C@@H](NC(=O)C(C)(C)C)C(C)C)c1=O (stereo partly shown) [C-112]
pest or weed control at 100 g/100 kg seed [3]: ≥ 75% | inhibition at 25 ppm (Aspergillus niger): ≥ 50%

CCCC(=O)N[C@H](Cn1c(=O)c(/C(C)=N/OC(C)C)cn(CC(O)c2cc(F)ccc2OC)c1=O)C(C)C (stereo partly shown) [C-115]
pest or weed control at 100 g/100 kg seed [3]: ≥ 75% | inhibition at 25 ppm (Aspergillus niger): ≥ 50%

CCCC(=O)N[C@@H](C)Cn1c(=O)c(/C(C)=N/OC(C)C)cn(CC(O)c2cc(F)ccc2OC)c1=O (stereo partly shown) [C-135]
pest or weed control at 100 g/100 kg seed [3]: ≥ 75% | inhibition at 25 ppm (Aspergillus niger): ≥ 50%

COc1ccc(F)cc1C(O)Cn1cc(/C(C)=N/OC(C)C)c(=O)n(C[C@H](CCSC)NC(=O)C(C)C)c1=O (stereo partly shown) [C-176]
pest or weed control at 100 g/100 kg seed [3]: ≥ 75% | inhibition at 25 ppm (Aspergillus niger): ≥ 50%

COc1cc(F)c(F)cc1C(O)Cn1cc(/C(C)=N/OC(C)C)c(=O)n(C[C@H](C)NC(=O)C(C)C)c1=O (stereo partly shown) [C-182]
pest or weed control at 100 ppm [4]: ≥ 75% | inhibition at 25 ppm (Aspergillus niger): ≥ 50%

COc1ccc(F)cc1C(O)Cn1cc(/C(C)=N/OC(C)C)c(=O)n(C[C@H](C)NC(=O)NC(C)C)c1=O (stereo partly shown) [C-191]
pest or weed control at 100 ppm [4]: ≥ 75%
